{"source": "paper PMC8746632", "about": "“Design and Synthesis of New Thiophene/Thieno[2,3-d]pyrimidines along with Their Cytotoxic Biological Evaluation as Tyrosine Kinase Inhibitors in Addition to Their Apoptotic and Autophagic Induction” (Molecules, 2021)", "target": "T1, FLT3 kinase (Fms-like tyrosine kinase 3) (Homo sapiens, UniProt P36888)", "T1 sequence (P36888 27-993)": "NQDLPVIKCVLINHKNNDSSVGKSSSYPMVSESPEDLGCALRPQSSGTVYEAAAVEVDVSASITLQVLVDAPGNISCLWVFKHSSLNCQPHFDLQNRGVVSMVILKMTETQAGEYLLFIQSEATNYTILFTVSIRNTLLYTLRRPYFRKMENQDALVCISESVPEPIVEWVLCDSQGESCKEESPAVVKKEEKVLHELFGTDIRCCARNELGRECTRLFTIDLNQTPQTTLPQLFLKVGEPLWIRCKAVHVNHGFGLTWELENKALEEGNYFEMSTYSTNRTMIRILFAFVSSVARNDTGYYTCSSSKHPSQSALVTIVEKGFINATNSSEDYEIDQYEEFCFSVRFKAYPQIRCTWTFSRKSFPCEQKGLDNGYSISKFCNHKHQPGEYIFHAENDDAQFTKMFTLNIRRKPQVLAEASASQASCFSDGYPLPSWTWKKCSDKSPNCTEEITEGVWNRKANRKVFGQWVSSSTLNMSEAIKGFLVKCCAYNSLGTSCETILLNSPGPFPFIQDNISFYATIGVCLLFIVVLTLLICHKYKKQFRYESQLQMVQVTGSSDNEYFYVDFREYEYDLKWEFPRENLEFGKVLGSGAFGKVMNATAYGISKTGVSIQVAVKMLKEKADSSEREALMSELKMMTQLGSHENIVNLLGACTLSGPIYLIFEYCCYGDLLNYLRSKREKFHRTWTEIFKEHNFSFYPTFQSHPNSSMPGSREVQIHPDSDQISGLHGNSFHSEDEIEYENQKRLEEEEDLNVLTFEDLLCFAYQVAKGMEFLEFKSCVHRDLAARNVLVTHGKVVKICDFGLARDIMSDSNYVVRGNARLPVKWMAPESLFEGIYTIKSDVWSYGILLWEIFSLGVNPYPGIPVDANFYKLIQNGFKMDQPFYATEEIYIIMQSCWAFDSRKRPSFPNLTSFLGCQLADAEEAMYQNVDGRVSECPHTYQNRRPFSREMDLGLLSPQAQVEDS", "test": "FLT3 Kinase Assay Kit, ADP production, luminescence, dose response", "type": "biochemical"}
{"smiles": "CC(C)(C)c1cc(Nc2ncnc3sc4c(c23)CCCC4)on1", "note": "[9b, N-(3-tert-butylisoxazol-5-yl)-5,6,7,8-tetrahydrobenzo[4,5]thieno[2,3-d]pyrimidin-4-amine]", "values": [{"measurement": "IC50", "value": "39.6 ± 4.6", "unit": "µM"}]}
{"smiles": "O=C(CCl)NNc1ncnc2sc3c(c12)CCCC3", "note": "[compound 5, 2-Chloro-N′-(5,6,7,8,tetrahydrobenzo[4,5]thieno[2,3-d]pyrimidin-4-yl)acetohydrazide]", "values": [{"measurement": "IC50", "value": "32.4 ± 5.5", "unit": "µM"}]}
{"smiles": "CC1=CC(=O)N(Nc2ncnc3sc4c(c23)CCCC4)C1=O", "note": "[compound 8, 3-Methyl-1-(5,6,7,8-tetrahydrobenzo[4,5]thieno[2,3-d]pyrimidin-4-ylamino)-1H-pyrrole-2,5-dione]", "values": [{"measurement": "IC50", "value": "40.5 ± 6.3", "unit": "µM"}]}
{"smiles": "CCOC(=O)c1c(NC(=O)CCl)sc2c1CCCC2", "note": "[compound 10, 10]", "values": [{"measurement": "IC50", "value": "40 ± 5.5", "unit": "µM"}]}
